Data on 93 compounds can be found in a melting point compilation (Tetko et al.; mined from patent text by program, amines drawn as free bases though some values may be those of a salt).

The structures appear in SMILES notation. Where only a bound is given, the exact number is not on record here.

What is called melting point is the temperature of the solid-liquid transition. In the case of `CC(C)CP1C(O)C(O)P(CC(C)C)C(O)C1O` (stereo not drawn), the melting point fell in the range of 173 to 175 °C.
The figure for `CCN(CC)C(=O)c1cc(-c2ccccc2)ccc1OC` is 85 to 87 °C.
In the case of `COc1cc2ncnc(NC3=CC(=O)C(N(C)C)=CC3=O)c2cc1OC` it was 245 to 250 °C.
`CCCCc1oc2ccccc2c1-c1ncc(-c2ccc3cc(OC(Cc4ccccc4)C(=O)O)ccc3c2)o1` (stereo not drawn): the melting point lay in the range of 174 to 177 °C.
In the case of `COc1ccc(CN2CCNCC2)cc1` it was 99 to 101 °C.
In the case of `C(#Cc1ccccn1)CCn1nnc(-c2ccccc2)n1` it was 71 to 73 °C.
In the case of `N[C@@H](Cc1cn(Cc2ccccc2)cn1)C(=O)O` it was 234 to 238 °C; in that of `COC(=O)c1cc(=O)c2cc(SC)ccc2[nH]1`, 264 to 266 °C.
For the compound `Cc1ccccc1C(=NO)C(=O)OC(C)C`, the melting point is 77 to 78 °C.
As to `CC(=O)N(C#N)Cc1ccccc1`, the melting point came to 42 °C.
The figure for `CCCCCCCCCCCCCCCCOc1ccc(-c2nc(CC(=O)OCC)c(OCC)o2)cc1` is 44 to 45 °C; for `O=Cc1ccc(C(O)c2cccnc2)cc1` (stereo not drawn) it is 104 to 105 °C.
With `C[C@@H](O)c1nccc(N2CCC(=Cc3cccc(Cl)c3)CC2)n1`, the melting point is 45 to 55 °C.
The figure for `CC(=O)c1ccc(-c2cccc(C(F)(F)F)c2)o1` is 105 to 109 °C.
The compound `CC(C(=O)n1c(=O)oc2ccccc21)C(O)C(C)(C)C` (stereo not drawn) displayed a melting point of 90 to 92 °C.
In the case of `CCOC(=O)c1cnc2nc(N3CCN(C)CC3)ncc2c1Cl` it was 173 to 175 °C.
In turn, `Cc1ccc2c3c(c(=O)oc2c1)CN(Cc1ccc(Cl)cc1)CC3` had a melting point of 147 to 149 °C.
In the case of `Cn1c(COc2ccc(CC3SC(=O)NC3=O)cc2)nc2ccc(Oc3ccc4cccc(NC(=O)NCc5ccccc5)c4c3)cc21` (stereo not drawn) it was 220 to 222 °C; in that of `CCCCCCCSc1nnc(N)s1`, 112 to 113 °C; in that of `CN1CCN(c2cccc(Nc3cc(NC(=O)Nc4c(Cl)cc(Cl)cc4Cl)ncn3)c2)CC1`, 138 to 142 °C.
The figure for `CC(=O)Nc1c(C)c(C)c2c(c1C)CC(C)(CN1CCC(c3ccccc3)CC1)O2` (stereo not drawn) is 94 to 96 °C; for `O=S(=O)(CCCCl)Nc1ccc(OCc2ccc3ccccc3n2)cc1` it is 117 °C; for `CO/C=C(/C(=O)OC)c1ccccc1C=O` it is 67 to 69 °C.
The figure for `CCCCc1ccc(C(=O)O)c2ccccc12` is 136 to 137 °C.
Consider `CCOC(=O)Cn1c(C(=O)OCC)cc(=O)c2cc(O)c(=O)ccc21`, for which the melting point lay in the range of 186 to 188 °C.
The figure for `CCCCCCNC(=O)c1ccccc1I` is 104 to 105 °C.
The figure for `CC(C)(O)c1ccc(-c2cnc3[nH]c(=O)n(CC4CCCCC4)c3n2)cn1` is greater than 250 °C; for `CCN(CC)CCC(=O)NC1(c2ccccc2Cl)C(=O)N(S(=O)(=O)c2ccc3c(c2)CCN3C(=O)N(CC)CC)c2ccc(Cl)cc21` (stereo not drawn) it is 130 to 133 °C.
In the case of `Cc1cc(C)c(N2CCCc3c2nn(C)c3C(=O)N2CCc3ccccc3C2)c(C)c1` it was 80.3 to 87.7 °C; in that of `O=c1c(Cl)coc2cc(OCCCCl)ccc12`, 101 to 103 °C.
Compound `CC(C)CC1(CC(=O)NO)CCN(CCc2ccccc2)C1=O` (stereo not drawn) showed a melting point of 123 to 124 °C.
The figure for `COc1ccc2c(c1)N(c1ccc(F)cc1)C(=O)C2(C)N` (stereo not drawn) is 140 to 141 °C.
The figure for `CCOC(=O)c1c(C)[nH]c2ccc(C(=O)c3c(C)c(OC)c4ccccn34)cc2c1=O` is 257 °C; for `COc1ccccc1N1CCN([C@@H]2Cc3c(O)cccc3C[C@H]2O)CC1` (relative stereo) it is 218 to 220 °C.
Consider `O=Cc1cn(-c2ccc(Cl)cc2)nc1-c1ccc([N+](=O)[O-])o1`, for which the melting point was in the range of 192 to 193 °C.
`Cc1c(C)c(N2CCN(c3ccc(C#N)cc3)CC2)c(C)c2c1OC(C)(C)C2` had a melting point of 255 to 257 °C.
In the case of `OC(c1ccccc1)c1nc(-c2ccncc2)cs1` (stereo not drawn) it was 146 to 147 °C; in that of `Nc1ncccc1-c1nc2cccnc2n1-c1ccc(CNC(=O)c2ccccc2)cc1`, 226 to 228 °C; in that of `Cn1c(=O)[nH]c2ccc(-c3cccc(Cl)c3)cc21`, 219 to 220 °C.
In the case of `O=C(O)Cc1cccc(OCCCc2cn(-c3ccc(C(F)(F)F)cn3)nc2-c2ccccc2)c1`, the melting point lay in the range of 132 to 133 °C.
The figure for `CC(C)(CO)c1cc2c(cc1Cl)C=C(C(=O)O)C(C(F)(F)F)O2` (stereo not drawn) is 204 to 205 °C.
The figure for `O=C1NCc2c(cccc2Oc2ccccc2)N1` is 278 to 280 °C.
Take `CCCCCCCC[Si](C)(C)CCSCCNC(=O)n1cc(F)c(=O)[nH]c1=O`: the melting point was in the range of 60 to 61 °C.
The figure for `CC(=O)CC(=O)Nc1nc(C)c(C)s1` is 191 to 193 °C; for `CCCc1c(OCc2ccccc2)ccc2c(=O)cc(C(=O)OCC)[nH]c12` it is 121 to 122 °C.
In the case of `CCCCC(CNC(=O)Nc1c(C(C)C)cccc1C(C)C)c1ccc2c(c1)OCO2` (stereo not drawn) it was 153 to 155 °C; in that of `Cn1ncsc1=NC(=S)Nc1ccccc1`, 174 to 175 °C; in that of `CN(C(=O)CN(C(=O)CNC(=O)OC(C)(C)C)c1ccccc1O)c1ccccc1`, 185 to 188 °C.
`CC(=O)c1ccc2c(=O)c(Br)c(C)oc2c1` displayed a melting point of 124 °C.
`O=[N+]([O-])c1ccccc1NCc1ccco1` gave a melting point of 85.6 °C.
In the case of `CCOC(=O)c1cnn(-c2ccc(OC)c(C#N)c2)c1` it was 192 to 193 °C.
In the case of `OCc1cc(F)nc(F)c1F` it was 48 to 49 °C; in that of `COc1ccccc1Oc1cccc2c1OC(=O)C2`, 171 to 172 °C.
Take `COc1ccc(-c2nc3sccn3c2/C=C/C(=O)c2cc(OC)c(OC)c(OC)c2)cc1`: the melting point fell in the range of 177 to 179 °C.
The figure for `CC1(C(=O)NCC(=O)O)CC1(Cl)Cl` (stereo not drawn) is 139 to 140 °C.
Take `NCC1CCN(CC(=O)Nc2cccc3c2C(=O)c2c-3n[nH]c2-c2ccc(N3CCNCC3)cc2)CC1`: the melting point is 239 °C.
The figure for `Nc1ncc(Br)cc1C(=O)O` is 272 °C; for `COc1cc(CN2CCCC2)ccc1OCC(=O)Nc1ccc(-c2ccc(Cl)cc2)cc1` it is 89 to 91 °C; for `Cc1c(C(=O)O)cnn1-c1ccc([N+](=O)[O-])cc1` it is 202 °C.
In the case of `O=Cc1ccc(OCCN2C(=O)COc3ccccc32)cc1` it was 75 to 78 °C; in that of `CC(C)C(=O)Nc1ccc(-c2c[nH]c(=O)cn2)cc1`, 280 °C; in that of `CC1(C)CCC(C)(C)c2cc([N+](=O)[O-])c([N+](=O)[O-])cc21`, 200 °C.
The figure for `COP(=O)(OC)c1cc(Oc2c(Cl)cc(C(F)(F)F)cc2Cl)ccc1[N+](=O)[O-]` is 106 to 107 °C; for `CCOC(=O)CNC(=O)CN1CCCC1=O` it is 63 to 64 °C.
`O=C1OC(OC(=O)c2cccnc2Nc2cccc(C(F)(F)F)c2)c2ccccc21` (stereo not drawn) registered a melting point of 159 to 162 °C.
The figure for `CC(C)=NN=C(N)Nc1c(Cl)cccc1Cl` is 205 to 210 °C; for `COC(=O)C=C(Nc1cc2c(cc1OCc1ccccc1)N(C(=O)OC(C)(C)C)CC2COC(C)=O)C(F)(F)F` (stereo not drawn) it is 114 to 115 °C; for `Cc1cc(NC2=NCCN2)n(C(C)C)n1` it is 173 to 175 °C.
The figure for `CCS(=O)(=O)c1cc(C(=O)NCC(Cl)CCCCl)c(OC)cc1N` (stereo not drawn) is 109 °C; for `CN(O)C(=O)C=Cc1ccc(F)cc1` it is 141 to 142 °C.
Regarding `c1cc2c3c(ccc(OCCCN4CCCCC4)c3c1)-c1cc(OCCCN3CCCCC3)ccc1-2`, the melting point fell in the range of 92 to 93 °C.
The figure for `CCOC(=O)[C@H](CC(C)C)NC(=O)[C@@H](NC(=O)c1ccccc1)C(C)C` is 159 to 160 °C.
`O=C(CC(=O)C(F)F)c1ccc(Br)s1` yielded a melting point of 83.5 to 85 °C.
The figure for `Cn1c(CCN2CCN(Cc3ccccc3)CC2)nc2ccc3ccccc3c21` is 144 to 146 °C.
In turn, `O=C1Nc2cc(F)ccc2OC1CCO` (stereo not drawn) gave a melting point of 126 to 130 °C.
The compound `CCOC(=O)Nc1cc2c(c(N)n1)N=C(c1ccccc1)[C@@H](C)N2` yielded a melting point of 148 to 151 °C.
With `CNC(=NCCSCc1ncccc1OC)NC#N`, the melting point fell in the range of 122 to 123 °C.
The figure for `CCOC(=O)c1cnn2c1c(N1CCOCC1)nc1ccccc12` is 142 to 143 °C; for `Cc1cc(SC2=C(O)CC(CCc3ccc(O)cc3)(C3CCCC3)OC2=O)c(C(C)(C)C)cc1N` (stereo not drawn) it is 133 to 135 °C.
Take `O=S(=O)(c1ccc(O)cc1)N1c2ccc(Br)cc2-c2ccccc2C1c1ccccc1` (stereo not drawn): the melting point fell in the range of 262 to 265 °C.
The figure for `Cc1ccc(S(=O)(=O)NCCO)c(C)c1` is 70 to 72 °C.
In the case of `CCCCNC(=O)Oc1cccc(NC(=O)CC(=O)CCC)c1` it was 123 °C; in that of `CCCc1c(C(C)C)nc(C(C)C)c(CO)c1-c1ccc(F)cc1`, 49 to 54 °C; in that of `Brc1ccc(-n2c(-c3ccccc3)ccc2-c2ccccc2)cc1`, 218 to 219 °C.
For `OC(CCc1cccnc1)CSc1ccc(C2CCCCC2)cc1` (stereo not drawn), the melting point stood at 49 °C.
In the case of `CC(C#Cc1ccc(C=Cc2ccccn2)o1)N(O)C(N)=O` (stereo not drawn) it was 175 °C; in that of `Nc1nc2ccnc(-c3cccc(C=O)c3)n2n1`, 205 to 208 °C.
In the case of `CC(C)(C)[Si](C)(C)OC[C@H]1OC[C@@H](n2cnc3cc(Cl)c(Cl)cc32)C[C@@H]1O` it was 143 to 155 °C; in that of `COCCNC(=O)c1cccc(-c2cccc3cc(Cc4cccc(F)c4)sc23)c1`, 108 to 110 °C; in that of `CC1(CCC(=O)O)CC(=O)c2ccc(OCc3cccc(OCc4ccc5ccccc5n4)c3)cc2O1` (stereo not drawn), 152 to 154 °C.
The figure for `Cc1ccccc1C(O)c1cncnc1C(C)(C)C` (stereo not drawn) is 125 to 127 °C; for `Cn1c(=O)c2c(ncn2CCCCC(=O)CBr)n(C)c1=O` it is 106 to 109 °C.
Turning to `COc1cc(Nc2c(C#N)cnc3cc(OCC4CCCCO4)c(OC)cc23)c(Cl)cc1Cl` (stereo not drawn), the melting point was 193 to 196 °C.
